Holding throughout (assay type): in vivo
In assay [1] the test system is Alfalfa. Description: Preemergence herbicidal activity, % control of plant growth. Conditions: Medicago sativa, pre-emergence, 504 h, 16 lb/acre, about 3 weeks. An outline of the steps: (§1)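 A roughly 2% w/w solution in acetone and/or alcohol is sprayed at 16 lb/acre onto soil directly after seeds are sown, prior to emergence. Around three weeks on, activity is rated visually against untreated areas and given as average percent control.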

For assay [2], the system named is Barnyard Grass. The assay is described as above. Conditions: Echinochloa crus-galli, pre-emergence, 504 h; barnyard grass; 16 lb/acre; about 3 weeks. An outline of the steps: as §1
In assay [3] the test system is Cheatgrass. Described as above. Conditions: Bromus tectorum, pre-emergence, 504 h, 16 lb/acre, about 3 weeks. An outline of the steps: as §1
For assay [4], the system named is Chickweed. Described as above. Conditions: pre-emergence, 504 h, 16 lb/acre, about 3 weeks. An outline of the steps: as §1
Assay [5] relates to Corn. The assay is described as above. Conditions: Zea mays, pre-emergence, 504 h, 16 lb/acre, about 3 weeks. In short, it runs like this:
as §1

Assay [6] concerns Crabgrass. The description is as above. Conditions: Digitaria sanguinalis, pre-emergence, 504 h, 16 lb/acre, about 3 weeks. An outline of the steps:
as §1

Assay [7] has as its system Cucumber. The description is as above. Conditions: Cucumis sativus, pre-emergence, 504 h, 16 lb/acre, about 3 weeks. An outline of the steps: as §1
Assay [8] has as its system Curled Dock. Described as above. Conditions: pre-emergence, 504 h, 16 lb/acre, about 3 weeks. In short, it runs like this:
as §1

Assay [9] has as its system Foxtail. The description is as above. Conditions: Setaria, pre-emergence, 504 h, 16 lb/acre, about 3 weeks. In short, it runs like this:
as §1

Assay [10] deals with Johnsongrass. Described as above. Conditions: Sorghum halepense, pre-emergence, 504 h, 16 lb/acre, about 3 weeks. In short, it runs like this:
as §1

Assay [11] has as its system Lambsquarters. Described as above. Conditions: Chenopodium album, pre-emergence, 504 h, 16 lb/acre, about 3 weeks. In short, it runs like this:
as §1

For assay [12], the system named is Nutgrass. The description is as above. Conditions: pre-emergence, 504 h, 16 lb/acre, about 3 weeks. In short, it runs like this:
as §1

Assay [13] concerns Pigweed. The description is as above. Conditions: Amaranthus retroflexus, pre-emergence, 504 h, 16 lb/acre, about 3 weeks. An outline of the steps: as §1
In assay [14] the test system is Snapbeans. The assay is described as above. Conditions: pre-emergence, 504 h, 16 lb/acre, about 3 weeks. In short, it runs like this: as §1
In assay [15] the test system is Velvetleaf. The description is as above. Conditions: Abutilon theophrasti, pre-emergence, 504 h, 16 lb/acre, about 3 weeks. In short, it runs like this:
as §1

Assay [16] has as its system Wild Oats. The description is as above. Conditions: Avena fatua, pre-emergence, 504 h, 16 lb/acre, about 3 weeks. An outline of the steps: as §1
Assay [17] relates to Yellow Rocket. Described as above. Conditions: pre-emergence, 504 h, 16 lb/acre, about 3 weeks. In short, it runs like this:
as §1

For assay [18], the system named is Alfalfa. The assay can be described thus: Postemergence herbicidal activity, % control of plant growth. Conditions: Medicago sativa, post-emergence, 264 h, 8 lb/acre, about 11 days. An outline of the steps: (§2)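 Around two weeks after seeds went in, the compound was sprayed at 8 pounds per acre over soil and developing plants. Results are visual estimates of percent growth control made approximately 11 days after spraying.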

Assay [19] deals with Barnyard Grass. The assay is described as above. Conditions: Echinochloa crus-galli, post-emergence, 264 h, 8 lb/acre, about 11 days. An outline of the steps:
as §2

In assay [20] the test system is Cheatgrass. Described as above. Conditions: Bromus tectorum, post-emergence, 264 h, 8 lb/acre, about 11 days. In short, it runs like this: as §2
In assay [21] the test system is Chickweed. The description is as above. Conditions: post-emergence, 264 h, 8 lb/acre, about 11 days. An outline of the steps:
as §2

The test system of assay [22] is Corn. Described as above. Conditions: Zea mays, post-emergence, 264 h, 8 lb/acre, about 11 days. An outline of the steps: as §2
The subject of assay [23] is Crabgrass. The description is as above. Conditions: Digitaria sanguinalis, post-emergence, 264 h, 8 lb/acre, about 11 days. An outline of the steps:
as §2

The test system of assay [24] is Cucumber. The description is as above. Conditions: Cucumis sativus, post-emergence, 264 h, 8 lb/acre, about 11 days. An outline of the steps: as §2
Assay [25] has as its system Curled Dock. The description is as above. Conditions: post-emergence, 264 h, 8 lb/acre, about 11 days. An outline of the steps: as §2
Assay [26] has as its system Foxtail. Described as above. Conditions: Setaria, post-emergence, 264 h, 8 lb/acre, about 11 days. An outline of the steps: as §2
In assay [27] the test system is Johnsongrass. The assay is described as above. Conditions: Sorghum halepense, post-emergence, 264 h, 8 lb/acre, about 11 days. An outline of the steps: as §2
The subject of assay [28] is Lambsquarters. Described as above. Conditions: Chenopodium album, post-emergence, 264 h, 8 lb/acre, about 11 days. An outline of the steps: as §2
Assay [29] has as its system Nutgrass. Described as above. Conditions: post-emergence, 264 h, 8 lb/acre, about 11 days. An outline of the steps: as §2
The test system of assay [30] is Pigweed. Described as above. Conditions: Amaranthus retroflexus, post-emergence, 264 h, 8 lb/acre, about 11 days. An outline of the steps: as §2
Assay [31] relates to Snapbeans. The assay is described as above. Conditions: post-emergence, 264 h, 8 lb/acre, about 11 days. In short, it runs like this:
as §2

Assay [32] concerns Velvetleaf. Described as above. Conditions: Abutilon theophrasti, post-emergence, 264 h, 8 lb/acre, about 11 days. In short, it runs like this: as §2
Assay [33] has as its system Wild Oats. The description is as above. Conditions: Avena fatua, post-emergence, 264 h, 8 lb/acre, about 11 days. An outline of the steps:
as §2

Assay [34] has as its system Yellow Rocket. The description is as above. Conditions: post-emergence, 264 h, 8 lb/acre, about 11 days. In short, it runs like this:
as §2

Assay [35] relates to undesirable plants of both the monocotyledonous and the dicotyledonous species. The assay can be described thus: Herbicidal activity, general. Conditions: for order of herbicidal activity: in vivo; for herbicidal activity: 16 pounds per acre. The source says: All of the 3-substituted compounds of the pyrido [3,2-d]pyrimidine-2,4(1H,3H)-dione and lumazine families made from intermediate amides produced by the method of this invention have an unexpectedly high order of herbicidal activity.
In using the compound, seeds of the types of plants set forth in Table II were sown in fresh soil. In the preemergence test the soil was sprayed with a solution of the test compound immediately after the seeds were planted, and before any noticeable growth developed. The solution was about a 2 percent by weight solution of the compound in acetone and/or alcohol. The compound was applied at the rate of 16 pounds per acre of soil surface.
Approximately 3 weeks after spray application, the herbicidal activity of the compound was determined by visual observation of the treated area in comparison with untreated control areas. These observations are reported below in Table II wherein the average activity rating is reported as the percent control of plant growth.
In the postemergence test the soil and developing plants were sprayed approximately 2 weeks after the seeds were sown. The compound was applied at the rate of 8 pounds per acre from about a 2 percent by weight solution of the test compound in acetone and/or alcohol. The postemergence herbicidal activity was measured in the same way as the preemergence activity; i.e. visual observation approximately 11 days after spraying, and expressed as the percent control of plant growth.

What is called pest or weed control is how far the test organism was held down. Read a high pest or weed control as a strong effect. As a reminder, the plant injury is the degree to which the test organism was suppressed or injured, in per cent. High values mean strong suppression, low ones weak suppression.

For the compound `CC(C)n1c(=O)[nH]c2cccnc2c1=O` [3-isopropyl-pyrido[3,2-d]pyrimidine-2,4(1H,3H)-dione], the pest or weed control at 17933.6 g/ha in assay [1], in assay [2], in [3], in assay [4], in [6] and in assay [7] was 100% in each case. In addition, the pest or weed control at 17933.6 g/ha in assay [8] came out at 100%; in assay [9] it was 100%; in assay [10], 100%; in assay [11], 90%; in [12], 20%; in [13] it was 100%. Further, the pest or weed control at 17933.6 g/ha in [14], in [15], in assay [16] and in assay [17] was 100% each time. The same compound displayed a plant injury at 17933.6 g/ha in assay [5] of 100%. Further, the pest or weed control at 8966.8 g/ha in assay [18] stood at 90%; in assay [19] it was 80%; in [20], 50%; in [21] it was 70%; in assay [23] it was 100%; in [24] it was 100%. Also, the pest or weed control at 8966.8 g/ha in [25] was 100%; in [26], 100%; in [27], 90%; in [28], 100%; in assay [29] it was 50%; in assay [30], 100%. Further, the pest or weed control at 8966.8 g/ha in assay [31] came to 90%; in assay [32] it was 100%; in [33], 70%; in assay [34], 100%. For the same compound, in assay [22], the plant injury at 8966.8 g/ha is 30%. Besides, the “order of herbicidal activity” value in assay [35] is “high order of activity”.
Turning to `CCC(C)n1c(=O)[nH]c2cccnc2c1=O` (stereo not shown) [3-sec-butyl-pyrido[3,2-d] pyrimidine-2,4(1H,3H)-dione], the pest or weed control at 17933.6 g/ha in assay [1], in [2], in assay [3], in [4], in [6] and in assay [7] was 100% in each case. Also, the pest or weed control at 17933.6 g/ha in [8], in assay [9], in assay [10], in [11], in assay [12] and in [13] was 100% throughout. The pest or weed control at 17933.6 g/ha in [14], in assay [15], in [16] and in [17] was 100% throughout. In assay [5], this compound had a plant injury at 17933.6 g/ha of 100%. In addition, the pest or weed control at 8966.8 g/ha in [18], in assay [19], in assay [20], in assay [21], in assay [23] and in assay [24] was 100% in each case. The pest or weed control at 8966.8 g/ha in assay [25], in assay [26], in assay [27], in assay [28], in assay [29] and in assay [30] was 100% throughout. Further, the pest or weed control at 8966.8 g/ha in [31], in [32], in assay [33] and in [34] was 100% throughout. Moreover, the plant injury at 8966.8 g/ha in assay [22] was 90%. Besides, in assay [35] (relative to 3-isopropyl-pyrido[3,2-d]pyrimidine-2,4(1H,3H)-dione, preemergence or postemergence), the “effective application rate” value is “substantially the same application rates, e.g., as similar or salt solutions in water, are effective”.
For `CC(C)n1c(=O)[nH]c2ncccc2c1=O` [3-isopropyl-pyrido[2,3-d]pyrimidine-2,4(1H,3H)-dione], in [35], the “herbicidal activity” value is on record as “no appreciable herbicidal activity” and the “order of herbicidal activity” value is reported as “no appreciable activity”.
Take `CC(C)n1c(=O)[nH]c2cnccc2c1=O` [3-isopropyl-pyrido[3,4-d]pyrimidine-2,4(1H,3H)-dione]: the “herbicidal activity” value in assay [35] is “no appreciable herbicidal activity”.

These data come from patent publication US3960877A, “N-monosubstituted-2,3-pyridinedicarboxamides, and related compounds” (priority 1974, dated 1976).
